Data published in patent US20030212144A1, “Method for inducing an estrous cycle and pregnancy in a female mammal” (priority 2003, published 2003).
No end group written: not given here.

Legend:
old acyclic rats = conditions: cited from earlier work
[1] = test system: release of dihydroxyphenylacetic acid (DOPAC) from the hypothalamus; test: DOPAC release and content, static in vitro incubation of hypothalami, HPLC-EC; type: cell-based, Sprague-Dawley rats; conditions: for concentration of DOPAC in the hypothalamus at the end of the experiment: control 416±176; for DOPAC release: second incubation period; for DOPAC release after removal of deprenyl from the medium: third incubation period
Method: (§1) Four- to six-month old male Sprague-Dawley rats were obtained from Amitech (Omaha, Nebr.). These rats were housed in groups in air-conditioned (23±2° C.) and light controlled (lights on from 0700-1900 hours) animal rooms. They were provided rat chow and water ad libitum.
(§2) On the day of the experiment, the rats were sacrificed between 1200-1300 hrs. The brains were removed immediately and the hypothalami were dissected out using the following boundaries: the posterior part of the optic chiasmas the anterior limit, the anterior part of the mammillary bodies as the posterior limit, and the lateral hypothalamic sulci as the lateral limits (Palazzolo et al., Life Sci. 47: 2105-2109 (1990); Palazzolo et al., Life Sci. 51: 1797-1802 (1992)).
(§3) The hypothalami were weighed and divided into two halves along the sagittal plane and placed in a 12×75 mm glass tube containing 300 μl of Krebs-Ringer Henseleit (KRH) solution. The hypothalami were incubated in a static in vitro incubation system as described previously (Palazzolo et al., Life Sci. 47: 2105-2109 (1990); Palazzolo et al., Life Sci. 51: 1797-1802 (1992)). Briefly, the incubation system consisted of a plexiglass water bath, a magnetic circulator fin, and a thermostat coil. The bath was filled with distilled water and the thermostat was switched on at least an hour before the perfusion. The temperature in the water bath was maintained at 37° C. The magnetically controlled circulator fins stirred the water constantly to maintain a uniform temperature throughout the water bath. The incubation medium, KRH, consisted of 117 mM NaCl, 4.7 mM KCl, 1.2 mM MgSO4, 1.2 mM KH2PO4, 2.5 mM CaCl2, 24.8 mM NaHCO3, 11.1 mM glucose, 0.1 mg/ml ascorbic acid in 1 L of pyrogen free water. During the experiment, the incubation medium was supplied a mixture of 95% oxygen and 5% carbon dioxide constantly through gas inlet lines at a slow and steady rate to avoid turbulence. To stabilize the release of monoamines, each hypothalamus was preincubated in KRH for 60 min. Following this, the hypothalami were incubated for four 60-min periods as described below.
(§4) During the first incubation period, the hypothalami were incubated in KRH for 60 min to measure the basal release of monoamines and their metabolites. During the second incubation period, the hypothalami were incubated in KRH containing 0, 0.1 mM, 1.0 mM, or 10 mM of deprenyl. After this, the hypothalami were rinsed and incubated in KRH alone (without deprenyl) during the third incubation period to measure the residual effects, if any, from the pervious incubation period. In the final incubation period, the hypothalami were incubated with high K^+ KRH, which, had the same composition as the KRH except that it contained 60 mM KCl and 57 mM NaCl, to check the viability of the tissue. Hypothalami were rinsed with KRH in between incubations. After each incubation period, incubation medium was removed and 0.1 M HClO4 was added to it at the ratio of 25:1 (v/v) and was stored at −70° C. until analysis for neurotransmitters by HPLC-EC. At the end of the treatment period, the hypothalami were transferred to microsample vials containing 0.1 M HClO4 and were stored at −70° C. At the time of HPLC analysis, the hypothalami were homogenized in KRH and centrifuged at 1000 RPM for 15 min and the supernatant was used for the measurement of neurotransmitters.
(§5) The HPLC-EC system has been described before (Palazzolo et al., Life Sci. 47: 2105-2109 (1990); Palazzolo et al., Life Sci. 51: 1797-1802 (1992); ThyagaRajan, S.; Meites et al., Endocrinol. 136: 1103-1110 (1995)). Briefly, it consisted of an LC-4B electrochemical detector (Bioanalytical Systems, West Lafayette, Ind.); a phase II, 5 μm ODS reverse phase, C-18 column; a glassy carbon electrode, a C-R6A Chromatopac integrator, a CTO-6A column oven, and an LC-6A pump (Shimadzu, Columbia, Md.). […]

[2] = test system: release of 5-hydroxyindoleacetic acid (5-HIAA) from the hypothalamus; test: 5-HIAA release and content, static in vitro incubation of hypothalami, HPLC-EC; type: cell-based, Sprague-Dawley rats
Method: as §1, §2
The hypothalami were weighed and divided into two halves along the sagittal plane and placed in a 12×75 mm glass tube containing 300 μl of Krebs-Ringer Henseleit (KRH) solution. The hypothalami were incubated in a static in vitro incubation system as described previously (Palazzolo et al., Life Sci. 47: 2105-2109 (1990); Palazzolo et al., Life Sci. 51: 1797-1802 (1992)). Briefly, the incubation system consisted of a plexiglass water bath, a magnetic circulator fin, and a thermostat coil. The bath was filled with distilled water and the thermostat was switched on at least an hour before the perfusion. […]

[3] = test system: release of norepinephrine (NE) from the hypothalamus; test: norepinephrine release and content, static in vitro incubation of hypothalami, HPLC-EC; type: cell-based, Sprague-Dawley rats; conditions: for content of NE in the hypothalami at the end of the experiment: control 1104±588
Method: as §1, §2, §3, §4, §5

[4] = test system: release of dopamine (DA) from the hypothalamus; test: dopamine release and content, static in vitro incubation of hypothalami, HPLC-EC; type: cell-based, Sprague-Dawley rats; conditions: for DA release after removal of deprenyl: third incubation period; for DA content of the hypothalami at the end of the experiment: p<0.05
Method: as §1, §2, §3, §4, §5

[5] = test system: carcinogen-induced mammary tumor; conditions: rats; cited from earlier work
serum prolactin = conditions: young and old rats; cited from earlier work
[6] = test system: release of serotonin (5-HT) from the hypothalamus; test: 5-HT release and content, static in vitro incubation of hypothalami, HPLC-EC; type: cell-based, Sprague-Dawley rats; conditions: for 5-HT release: second incubation period, control 41.0±21; for content of 5-HT at the end of the experiment: p<0.05
Method: as §1, §2, §3, §4, §5

old male rats = conditions: cited from earlier work
[7] = test system: retired racing female greyhounds; test: induction of heat in retired racing female greyhounds previously treated with testosterone; type: in vivo, greyhound (canine); conditions: oral in saline, seven animals, saline control 22%
Method: Retired racing female greyhounds that were previously treated with testosterone were used in the experiments. Nine animals were used in the control group, and seven animals each were used in the low dose (0.5 mg/kg body weight deprenyl) and the high dose (0.75 mg/kg body weight) groups. Control animals were treated with oral saline solution. Experimental, animals were treated with one of the two doses of deprenyl orally dissolved in saline.

greyhound bitches = conditions: Bruyette et al., personal communication; cited from earlier work

## N[C@@H](Cc1ccc(O)c(O)c1)C(=O)O [1-dopa]
Old acyclic rats
  restoration of heat and the estrous cycle: restoration of heat and the estrous cycle

## CC(C)NNC(=O)c1ccncc1 [Iproniazid, 4-pyridinecarboxyylic acid, 2-(1-methylethyl)hydrazine]
Old acyclic rats
  restoration of heat and the estrous cycle: reinstate the estrous cycle

## C#CCN(C)C(C)Cc1ccccc1 (stereo not drawn) [deprenyl, phenethylamine, N, alpha-dimethyl-N-2-propynyl]
[1]; 0.1 mM deprenyl group
  concentration of DOPAC in the hypothalamus at the end of the experiment: 290.0±110
[1]; 0.1 mM deprenyl
  DOPAC release: did not produce any change
[1]; 1 mM deprenyl group, p<0.05
  concentration of DOPAC in the hypothalamus at the end of the experiment: 86.8±34
[1]; 1 mM deprenyl, pretreatment 267.7±46, p<0.01
  DOPAC release: 139.6±19
[1]; 1 mM group
  DOPAC release after removal of deprenyl from the medium: remained low
[1]; 10 mM deprenyl group, p<0.05
  concentration of DOPAC in the hypothalamus at the end of the experiment: 34.3±16
[1]; 10 mM deprenyl, pretreatment 285.6±28, p<0.001
  DOPAC release: 68.9±20
[1]; 10 mM group
  DOPAC release after removal of deprenyl from the medium: remained low
[1]; all the deprenyl-treated groups (0.1, 1, 10 mM)
  DOPAC release on stimulation with high potassium KRH: did not produce any increase
[2]; deprenyl treated groups compared to the control group, P<0.05
  content of 5-HIAA in the hypothalami at the end of the experiment: significantly low
[2]; hypothalami incubated with different doses of deprenyl (0.1, 1, 10 mM)
  release of 5-HIAA: dose-dependant decrease
[3]; 0.1 mM deprenyl group
  content of NE in the hypothalami at the end of the experiment: 743.3±179
[3]; 0.1 mM deprenyl, second incubation period (KRH+DEP), pretreatment 196.9±43, increase not significant
  NE release (Mean±S.E.): 252.3±48 pg/mg hypothalamus
[3]; 0.1 mM group, fourth period, high potassium KRH, p<0.05
  NE release (Mean±S.E.): 538.2±142 pg/mg hypothalamus
[3]; 0.1 mM group, third incubation period (KRH alone after deprenyl)
  NE release (Mean±S.E.): 185.1±42 pg/mg hypothalamus
[3]; 1 mM deprenyl group, p<0.05
  content of NE in the hypothalami at the end of the experiment: 388.1±71
[3]; 1 mM group, last period, high K+ KRH, p<0.05
  NE release (Mean±S.E.): 375.2±92 pg/mg hypothalamus
[3]; 1 mM group, third incubation period (KRH alone)
  NE release (Mean±S.E.): 267.7±28 pg/mg hypothalamus
[3]; 10 mM deprenyl group, p<0.05
  content of NE in the hypothalami at the end of the experiment: 281.3±91
[3]; 10 mM deprenyl, second incubation period, pretreatment 132.8±56, p<0.05
  NE release (Mean±S.E.): 799.9±141 pg/mg hypothalamus
[3]; 10 mM group, high K+ KRH, not statistically significant
  NE release (Mean±S.E.): 222.4±57 pg/mg hypothalamus
[3]; 10 mM group, third incubation period (KRH alone)
  NE release (Mean±S.E.): 159.8±41 pg/mg hypothalamus
[4]; 0.1 mM deprenyl, second incubation period, not significantly different from pretreatment
  DA release: 125.1±49
[4]; 0.1 mM group, high K+ KRH, significant increase
  DA release: 393.1±109
[4]; 0.1 mM group
  DA release after removal of deprenyl: brought DA release to pretreatment levels
[4]; 1 mM deprenyl, second incubation period, pretreatment 42.9±6
  DA release: 154.8±59
[4]; 1 mM group compared to 0 mM group
  DA content of the hypothalami at the end of the experiment: significantly less
[4]; 1 mM group, high K+ KRH, significant increase
  DA release: 106.8±27
[4]; 1 mM group
  DA release after removal of deprenyl: brought DA release to pretreatment levels
[4]; 10 mM deprenyl, second incubation period
  DA release: 197.7±63
[4]; 10 mM group compared to 0 mM group
  DA content of the hypothalami at the end of the experiment: significantly less
[4]; 10 mM group, high potassium KRH, not statistically significant from pretreatment
  DA release: 85.3±40
[4]; 10 mM group
  DA release after removal of deprenyl: returned DA release to basal levels
[5]
  carcinogen-induced mammary tumor growth: inhibits carcinogen-induced mammary tumor growth
Serum prolactin
  serum prolactin concentrations: decreases serum prolactin concentrations
Old acyclic rats
  restoration of heat and the estrous cycle: restore heat and the estrous cycle
[6]; 0.1 mM deprenyl
  5-HT release: 186.4±62
[6]; 0.1 mM group
  5-HT release on stimulation with high potassium KRH: significant increase
[6]; 1 mM deprenyl
  5-HT release: 438.4±85
[6]; 1 mM group compared to the control group
  content of 5-HT at the end of the experiment: significantly reduced
[6]; 10 mM deprenyl
  5-HT release: 670.3±199
[6]; 10 mM group compared to the control group
  content of 5-HT at the end of the experiment: significantly reduced
[6]; third incubation period
  5-HT release upon removal of deprenyl from the medium: declined rapidly
Old male rats
  sexual activity: increase sexual activity
[7]; higher dose 0.75 mg/kg body weight
  animals that came to heat: 86%
[7]; low dose 0.5 mg/kg body weight
  animals that came to heat: Fifty

## GnRH: hypothalamic hormone called gonadotropin-releasing hormone (QHWSYGLRPG; ends and bridges not checked; UniProt P01148 24-33, looked up)
Greyhound bitches
  induction of heat: unable to induce heat
